Measured values reported in US6989389B2, “Aryl ether substituted imidazoquinolines” (3M Innovative Properties Co., priority 2000, dated 2006).
Where a name gives a salt, the structure may show the parent alone. Read-outs that look alike come from different tables or passages of the source.

Test system: Peripheral blood mononuclear cells (PBMC)
Assay: Cytokine Induction in Human Cells (in vitro human blood cell system, IFN and TNF secreted into culture media)
Type: cell-based
Parameters: key to Lowest Effective Concentration (μM) Tumor Necrosis Factor / Lowest Effective Concentration (μM) Interferon: *: no induction was seen at any of the tested concentrations
Details: 18 to 24 hours, tested 30-0.014 μM; for minimal effective concentration: Homo sapiens, PBMC
From the text: An in vitro human blood cell system is used to assess cytokine induction. Activity is based on the measurement of interferon and tumor necrosis factor (α) (IFN and TNF, respectively) secreted into culture media as described by Testerman et. al. In “Cytokine Induction by the Immunomodulators Imiquimod and S-27609”, Journal of Leukocyte Biology, 58, 365-372 (September, 1995).
Whole blood from healthy human donors is collected by venipuncture into EDTA vacutainer tubes. Peripheral blood mononuclear cells (PBMC) are separated from whole blood by density gradient centrifugation using Histopaque®-1077. Blood is diluted 1:1 with Dulbecco's Phosphate Buffered Saline (DPBS) or Hank's Balanced Salts Solution (HBSS). The PBMC layer is collected and washed twice with DPBS or HBSS and resuspended at 4×10^6 cells/mL in RPMI complete. The PBMC suspension is added to 48 well flat bottom sterile tissue culture plates (Costar, Cambridge, Mass. or Becton Dickinson Labware, Lincoln Park, N.J.) containing an equal volume of RPMI complete media containing test compound.
The compounds are solubilized in dimethyl sulfoxide (DMSO). The DMSO concentration should not exceed a final concentration of 1% for addition to the culture wells. The compounds are generally tested at concentrations ranging from 30-0.014 μM.
The solution of test compound is added at 60 μM to the first well containing RPMI complete and serial 3 fold dilutions are made in the wells. The PBMC suspension is then added to the wells in an equal volume, bringing the test compound concentrations to the desired range (30-0.014 μM). The final concentration of PBMC suspension is 2×10^6 cells/mL. The plates are covered with sterile plastic lids, mixed gently and then incubated for 18 to 24 hours at 37° C. in a 5% carbon dioxide atmosphere.
Following incubation the plates are centrifuged for 10 minutes at 1000 rpm (˜200×g) at 4° C. The cell-free culture supernatant is removed with a sterile polypropylene pipet and transferred to sterile polypropylene tubes. Samples are maintained at −30 to −70° C. until analysis. The samples are analyzed for interferon (α) by ELISA and for tumor necrosis factor (α) by ELISA or IGEN Assay.
Interferon (α) concentration is determined by ELISA using a Human Multi-Species kit from PBL Biomedical Laboratories, New Brunswick, N.J. Results are expressed in pg/mL.
Tumor necrosis factor (α) (TNF) concentration is determined using ELISA kits available from Biosource International, Camarillo, Calif. Alternately, the TNF concentration can be determined by Origen® M-Series Immunoassay and read on an IGEN M-8 analyzer from IGEN International, Gaithersburg, Md. The immunoassay uses a human TNF capture and detection antibody pair from Biosource International, Camarillo, Calif. Results are expressed in pg/mL.
The table below lists the lowest concentration found to induce interferon and the lowest concentration found to induce tumor necrosis factor for each compound.

[1] = lowest concentration found to induce interferon (α), ELISA
[2] = lowest concentration found to induce tumor necrosis factor (α), ELISA or IGEN assay
[3] = lowest concentration found to induce interferon (α), ELISA, read-out: Lowest Effective Concentration (μM) Interferon
[4] = lowest concentration found to induce tumor necrosis factor (α), ELISA or IGEN assay, read-out: Lowest Effective Concentration (μM) Tumor Necrosis Factor

| SMILES | Lowest Effective Concentration (μM) Interferon [1] | Lowest Effective Concentration (μM) Tumor Necrosis Factor [2] | minimal effective concentration [3] [µM] | minimal effective concentration [4] [µM] |
| --- | --- | --- | --- | --- |
| COC(=O)c1ccc(COCC(C(C)C)n2cnc3c(N)nc4ccccc4c32)cc1 (stereo not drawn) [Example 66] | * | * |  |  |
| CCC(COCc1ccc(Br)cc1)n1cnc2c(N)nc3ccccc3c21 (stereo not drawn) [Example 27] |  | * | 0.12 |  |
| CC(Cn1cnc2c(N)nc3ccccc3c21)OCc1cccc2ccccc12 (stereo not drawn) [Example 69] |  | * | 1.11 |  |
| Cc1ccc(COCC(C)n2cnc3c(N)nc4ccccc4c32)cc1 (stereo not drawn) [Example 72] |  | * | 1.11 |  |
| CCC(COCc1ccccc1Cl)n1cnc2c(N)nc3ccccc3c21 (stereo not drawn) [Example 40] |  | * | 0.12 |  |
| Nc1nc2ccccc2c2c1ncn2CC(OCc1ccccc1)c1ccccc1 (stereo not drawn) [Example 28] |  | * | 10 |  |
| CCOCc1nc2c(N)nc3ccccc3c2n1CCOCCCOCc1ccccc1 [Example 21, 1-{2-[3-(Benzyloxy)propoxy]ethyl}-2-(ethoxymethyl)-1H-imidazo[4,5-c]quinolin-4-amine] |  | * | 0.12 |  |
| CC(C)c1ccccc1C#CCOCCn1cnc2c(N)nc3ccccc3c21 [Example 7, 1-(2-{[3-(2-Isopropylphenyl)-2-propynyl]oxy}ethyl)-1H-imidazo[4,5-c]quinolin-4-amine Hydrochloride] |  |  | 1.11 | 0.37 |
| CCC(COCc1cccc(C(F)(F)F)c1)n1cnc2c(N)nc3ccccc3c21 (stereo not drawn) [Example 26] |  | * | 0.12 |  |
| CC(C)(Cn1cnc2c(N)nc3ccccc3c21)OCc1ccccc1Cl [Example 38] |  | * | 10 |  |
| CC(COCc1ccc(C(F)(F)F)cc1)n1cnc2c(N)nc3ccccc3c21 (stereo not drawn) [Example 74] |  | * | 0.37 |  |
| CCCCc1nc2c(N)nc3c(c2n1CCOCc1ccc(C(C)(C)C)cc1)CCCC3 [Example 95] |  | * | 1.11 |  |
| Cc1ccc([N+](=O)[O-])c(OC(C)Cn2cnc3c(N)nc4ccccc4c32)c1 (stereo not drawn) [Example 56] |  |  | 1.11 | 10 |
| Cc1nc2c(N)nc3ccccc3c2n1CCOCC#Cc1ccccc1 [Example 118, 2-Methyl-1-{2-[(3-phenylprop-2-ynyl)oxy]ethyl}-1H-imidazo[4,5-c]quinolin-4-amine] |  |  | 0.01 | 0.04 |
| C[C@@H](COCc1ccc(C#N)cc1)Cn1cnc2c(N)nc3ccccc3c21 [Example 110] |  | * | 3.33 |  |
| Nc1nc2ccccc2c2c1ncn2CCOCCCc1cccc(C(=O)O)c1 [Example 12, 3-{3-[2-(4-Amino-1H-imidazo[4,5-c]quinolin-1-yl)ethoxy]propyl}benzoic acid bis(trifluoroacetate)] |  | * | 10 |  |
| CC(C)(Cn1cnc2c(N)nc3ccccc3c21)OCc1ccc(Cl)cc1 [Example 34] | * | * |  |  |
| CC(C)C(COCc1cccc(C#N)c1)n1cnc2c(N)nc3ccccc3c21 (stereo not drawn) [Example 65] |  | * | 1.11 |  |
| CC(COCc1ccc(Cl)cc1)n1cnc2c(N)nc3ccccc3c21 (stereo not drawn) [Example 73] |  | * | 1.11 |  |
| CC(C)C(COc1ccc([N+](=O)[O-])cc1)n1cnc2c(N)nc3ccccc3c21 (stereo not drawn) [Example 58] |  | * | 3.33 |  |
| CCC(COCC(=O)OC)n1cnc2c(N)nc3ccccc3c21 (stereo not drawn) [Example 43] |  | * | 0.37 |  |
